Assay type in all cases: in vivo
Assay [1] relates to Lolium perenne (LOLPE). The assay can be described thus: Example B pre-emergence herbicidal test, LOLPE. Particulars: Lolium perenne, 312 h, rate 250 g/ha, evaluated after 13 days, 100=total damage to plant, 0=no damage to plant. The essentials:
(§1)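 Plants were rated 13 days after treatment, 0 = no damage to 100 = total damage. They were grown in a glasshouse at 24/16 °C, 14 h light, 65% humidity and watered twice daily. Pre-emergence spray was applied one day after sowing, formulated in acetone/water 50:50 with 0.5% Tween 20.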

Assay [2] concerns Alopecurus myosuroides (ALOMY). The assay can be described thus: Example B pre-emergence herbicidal test, ALOMY. Particulars: Alopecurus myosuroides, 312 h, rate 250 g/ha, evaluated after 13 days, 100=total damage to plant, 0=no damage to plant. The essentials: as §1
For assay [3], the system named is Echinochloa crus-galli (ECHCG). The assay can be described thus: Example B pre-emergence herbicidal test, ECHCG. The settings on record: Echinochloa crus-galli, 312 h, rate 250 g/ha, evaluated after 13 days, 100=total damage to plant, 0=no damage to plant. Summed up:
as §1

For assay [4], the system named is Avena fatua (AVEFA). The assay can be described thus: Example B pre-emergence herbicidal test, AVEFA. Particulars: Avena fatua, 312 h, rate 250 g/ha, evaluated after 13 days, 100=total damage to plant, 0=no damage to plant. The essentials: as §1
The test system of assay [5] is Lolium perenne (LOLPE). The assay can be described thus: Example B post-emergence herbicidal test, LOLPE. Particulars: Lolium perenne, 312 h, rate 250 g/ha, evaluated after 13 days, scale 0-100, read-out: Post-emergence activity LOLPE (100=total damage to plant; 0=no damage to plant). Summed up:
(§2)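 Plants grown from seed in standard soil for 8 days in a glasshouse (24/16 °C day/night, 14 h light, 65% humidity), then sprayed with an aqueous solution from the active ingredient formulated in acetone/water (50:50) with 0.5% Tween 20. Damage scored after 13 days, 0 (none) to 100 (total).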

Assay [6] concerns Alopecurus myosuroides (ALOMY). The assay can be described thus: Example B post-emergence herbicidal test, ALOMY. Particulars: Alopecurus myosuroides, 312 h, rate 250 g/ha, evaluated after 13 days, scale 0-100, read-out: Post-emergence activity ALOMY (100=total damage to plant; 0=no damage to plant). Summed up:
as §2

The subject of assay [7] is Echinochloa crus-galli (ECHCG). The assay can be described thus: Example B post-emergence herbicidal test, ECHCG. Particulars: Echinochloa crus-galli, 312 h, rate 250 g/ha, evaluated after 13 days, scale 0-100, read-out: Post-emergence activity ECHCG (100=total damage to plant; 0=no damage to plant). The essentials: as §2
In assay [8] the test system is Avena fatua (AVEFA). The assay can be described thus: Example B post-emergence herbicidal test, AVEFA. Particulars: Avena fatua, 312 h, rate 250 g/ha, evaluated after 13 days, scale 0-100, read-out: Post-emergence activity AVEFA (100=total damage to plant; 0=no damage to plant). The essentials: as §2

For the compound `Cc1cc(C)c(C2C(=O)CC(CC3CCN(C(=O)c4cc(C)on4)CC3)C2=O)c(C)c1` (stereo not shown) [Compound T119], the pest or weed control at 250 g/ha with Lolium perenne (LOLPE) [1] was found to be 80%; in assay [2] it was 40%; in assay [3] it was 100%; in the assay on Avena fatua (AVEFA) [4], 30%; in the assay on Lolium perenne (LOLPE) [5] it was 90%; in assay [6], 90%. Also, the results for the pest or weed control at 250 g/ha (in assay [7]; in the assay on Avena fatua (AVEFA) [8]) were 90% and 80%, respectively.

Take `Cc1cc(C)c(C2C(=O)CC(CC3CCN(C(=O)N4CCCCC4)CC3)C2=O)c(C)c1` (stereo not shown) [Compound T120]: the pest or weed control at 250 g/ha in the assay with Lolium perenne (LOLPE) [1] was 20%; in assay [2], 30%; in assay [3] it was 30%; with Avena fatua (AVEFA) [4], 10%; in the assay with Lolium perenne (LOLPE) [5], 30%; in assay [6], 30%. Also, the pest or weed control at 250 g/ha worked out at 10% in assay [7] and 20% in the assay with Avena fatua (AVEFA) [8].

In the case of `Cc1cc(C)c(C2C(=O)CC(CC3CCN(C(=O)c4cc(C)nn4C)CC3)C2=O)c(C)c1` (stereo not shown) [Compound T121], the pest or weed control at 250 g/ha in the assay on Lolium perenne (LOLPE) [1] came out at 80%; in assay [2], 30%; in assay [3] it was 90%; in the assay with Avena fatua (AVEFA) [4], 60%; with Lolium perenne (LOLPE) [5], 90%; in assay [6], 80%. For the same compound, the pest or weed control at 250 g/ha was determined as 80% in assay [7] and 100% with Avena fatua (AVEFA) [8].

Take `Cc1cccc(C(=O)N2CCC(CC3CC(=O)C(c4c(C)cc(C)cc4C)C3=O)CC2)c1` (stereo not shown) [Compound T122]: the pest or weed control at 250 g/ha in the assay with Lolium perenne (LOLPE) [1] turned out to be 50%; in assay [2] it was 20%; in assay [3], 70%; in the assay with Avena fatua (AVEFA) [4], 20%; in the assay on Lolium perenne (LOLPE) [5] it was 80%; in assay [6] it was 60%. Further, the pest or weed control at 250 g/ha in assay [7] was 70%; in the assay on Avena fatua (AVEFA) [8], 30%.

In the case of `COCCOC(=O)N1CCC(CC2CC(=O)C(c3c(C)cc(C)cc3C)C2=O)CC1` (stereo not shown) [Compound T123], the pest or weed control at 250 g/ha with Lolium perenne (LOLPE) [1] turned out to be 60%; in assay [2] it was 60%; in assay [3], 60%; with Avena fatua (AVEFA) [4] it was 60%; in the assay on Lolium perenne (LOLPE) [5], 70%; in assay [6], 80%. Further, the pest or weed control at 250 g/ha in assay [7] is 60%; in the assay with Avena fatua (AVEFA) [8], 90%.

Turning to `Cc1cc(C)c(C2C(=O)CC(CC3CCN(C(=O)c4cn(C)nc4C(F)F)CC3)C2=O)c(C)c1` (stereo not shown) [Compound T124], the pest or weed control at 250 g/ha in the assay with Lolium perenne (LOLPE) [1] was determined as 20%; in assay [2] it was 20%; in assay [3] it was 30%; in the assay on Avena fatua (AVEFA) [4] it was 10%; in the assay with Lolium perenne (LOLPE) [5], 20%; in assay [6] it was 30%. In addition, the pest or weed control at 250 g/ha was 20% in assay [7] and 30% in the assay on Avena fatua (AVEFA) [8].

For `Cc1cc(C)c(C2C(=O)CC(CC3CCN(C(=O)c4ccsc4)CC3)C2=O)c(C)c1` (stereo not shown) [Compound T126], the pest or weed control at 250 g/ha with Lolium perenne (LOLPE) [1] worked out at 60%; in assay [2], 30%; in assay [3], 50%; in the assay on Avena fatua (AVEFA) [4], 40%; in the assay on Lolium perenne (LOLPE) [5], 70%; in assay [6] it was 50%. For the same compound, the pest or weed control at 250 g/ha in assay [7] worked out at 60%; with Avena fatua (AVEFA) [8], 70%.

As for `Cc1cc(C)c(C2C(=O)CC(CC3C[C@@H]4O[C@H]3[C@@H]3C(=O)N(C)C(=O)[C@@H]34)C2=O)c(C)c1` (stereo partly shown) [Compound T128], the pest or weed control at 250 g/ha in the assay with Lolium perenne (LOLPE) [1] worked out at 50%; in assay [2], 70%; in assay [3], 60%; in the assay on Avena fatua (AVEFA) [4], 40%; in the assay with Lolium perenne (LOLPE) [5], 50%; in assay [6] it was 40%. The pest or weed control at 250 g/ha in assay [7] was 50%; in the assay on Avena fatua (AVEFA) [8] it was 90%.

In the case of `Cc1cc(C)c(C2C(=O)CC(CC3OCCO3)C2=O)c(C)c1` (stereo not shown) [Compound T130], the pest or weed control at 250 g/ha was 100% with Lolium perenne (LOLPE) [1]; 70% in assay [2]; 30% in assay [3]; 10% in the assay on Avena fatua (AVEFA) [4]; 90% in the assay with Lolium perenne (LOLPE) [5]; 60% in assay [6]. Moreover, the pest or weed control at 250 g/ha was found to be 60% in assay [7] and 70% in the assay with Avena fatua (AVEFA) [8].

On to `Cc1cc(C)c(C2C(=O)CC(CC3CCN(C(=O)C(F)(F)C(F)F)C3)C2=O)c(C)c1` (stereo not shown) [Compound T131], for which the pest or weed control at 250 g/ha was 90% in the assay on Lolium perenne (LOLPE) [1]; 70% in assay [2]; 100% in assay [3]; 70% in the assay with Avena fatua (AVEFA) [4]; 100% in the assay on Lolium perenne (LOLPE) [5]; 90% in assay [6]. In addition, the pest or weed control at 250 g/ha (in assay [7]; with Avena fatua (AVEFA) [8]) was 90% in each case.

Turning to `Cc1cc(-c2ccc(Cl)cc2F)cc(C)c1C1C(=O)C/C(=C\C2CCOCC2)C1=O` (stereo not shown) [Compound T132], the pest or weed control at 250 g/ha with Lolium perenne (LOLPE) [1] came out at 70%; in assay [2], 20%; in assay [3], 90%; in the assay on Avena fatua (AVEFA) [4] it was 70%; in the assay with Lolium perenne (LOLPE) [5] it was 70%; in assay [6], 70%. The pest or weed control at 250 g/ha in assay [7] worked out at 100%; in the assay with Avena fatua (AVEFA) [8], 80%.

As for `Cc1cc(-c2ccc(Cl)cc2F)cc(C)c1C1C(=O)C/C(=C\C2CCOC2)C1=O` (stereo not shown) [Compound T135], the pest or weed control at 250 g/ha amounted to 40% in the assay on Lolium perenne (LOLPE) [1]; 0% in assay [2]; 60% in assay [3]; 30% in the assay on Avena fatua (AVEFA) [4]; 70% in the assay on Lolium perenne (LOLPE) [5]; 80% in assay [6]. In addition, the pest or weed control at 250 g/ha in assay [7] turned out to be 90%; in the assay with Avena fatua (AVEFA) [8], 80%.

Turning to `Cc1cc(Br)cc(C)c1C1C(=O)CC(CC2CCOCC2)C1=O` (stereo not shown) [Compound T138], the pest or weed control at 250 g/ha in the assay on Lolium perenne (LOLPE) [1] stood at 90%; in assay [2] it was 80%; in assay [3], 90%; with Avena fatua (AVEFA) [4], 70%; in the assay with Lolium perenne (LOLPE) [5] it was 90%; in assay [6], 90%. Further, the pest or weed control at 250 g/ha in assay [7] was determined as 70%; in the assay on Avena fatua (AVEFA) [8], 90%.

As to `Cc1cc(-c2ccccc2F)cc(C)c1C1C(=O)CC(CC2CCOCC2)C1=O` (stereo not shown) [Compound T139], the pest or weed control at 250 g/ha came to 80% in the assay with Lolium perenne (LOLPE) [1]; 70% in assay [2]; 90% in assay [3]; 60% in the assay on Avena fatua (AVEFA) [4]; 90% in the assay with Lolium perenne (LOLPE) [5]; 90% in assay [6]. In addition, the pest or weed control at 250 g/ha in assay [7] was 100%; with Avena fatua (AVEFA) [8], 90%.

As for `Cc1cc(-c2ccccc2F)cc(C)c1C1C(=O)CC(CC2CCOC2)C1=O` (stereo not shown) [Compound T140], the pest or weed control at 250 g/ha with Lolium perenne (LOLPE) [1] was 70%; in assay [2] it was 60%; in assay [3] it was 90%; in the assay on Avena fatua (AVEFA) [4] it was 50%; in the assay with Lolium perenne (LOLPE) [5], 90%; in assay [6] it was 90%. For the same compound, the pest or weed control at 250 g/ha was 90% in assay [7] and 60% in the assay on Avena fatua (AVEFA) [8].

Turning to `Cc1cc(C)c(C2C(=O)CC(CC3CCN(C(=O)C4CC4)C3)C2=O)c(C)c1` (stereo not shown) [Compound T141], the pest or weed control at 250 g/ha in the assay on Lolium perenne (LOLPE) [1] worked out at 80%; in assay [2] it was 80%; in assay [3] it was 80%; with Avena fatua (AVEFA) [4], 80%; with Lolium perenne (LOLPE) [5], 70%; in assay [6] it was 80%. Moreover, the pest or weed control at 250 g/ha in assay [7] was found to be 60%; in the assay on Avena fatua (AVEFA) [8], 90%.

In the case of `Cc1cc(C)c(C2C(=O)CC(CC3CCN(C(=O)C(C)C)C3)C2=O)c(C)c1` (stereo not shown) [Compound T142], the pest or weed control at 250 g/ha in the assay with Lolium perenne (LOLPE) [1] was determined as 70%; in assay [2], 90%; in assay [3], 90%; in the assay on Avena fatua (AVEFA) [4] it was 80%; in the assay with Lolium perenne (LOLPE) [5], 70%; in assay [6], 90%. Also, the figures for the pest or weed control at 250 g/ha (in assay [7]; in the assay with Avena fatua (AVEFA) [8]) were 60% and 90%, respectively.

Values taken from patent US9096560B2, “5-heterocyclylalkyl-3-hydroxy-2-phenylcyclopent-2-enones as herbicides” (Syngenta Limited, priority 2008, dated 2015).
